Results as given in patent US20250101052A1, “COMPOUND FOR EGFR KINASE INHIBITOR, COMPOSITION, AND USE THEREOF” (INNOVATION INSTITUTE FOR ARTIFICIAL INTELLIGENCE IN …, priority 2021, published 2025).

Experiments:
[1] = system: BaF3-EGFR^L858R/T790M/C797S cells; experiment: BaF3 cell proliferation inhibition experiment (CCK-8); assay type: cell-based; conditions: Ba/F3 EGFR-L858R, 72 hours
Text: BaF3 cell proliferation inhibition experiment: The compounds of the present invention have excellent inhibitory activity against the proliferation of BaF3-EGFR^L858R/T790M/C797S cells
A. Cell line: BaF3 cells with stable overexpression of wild-type genes are named BaF3-EGFR^WT, and BaF3 cells with stable overexpression of EGFR^L858R/T790M/C797S EGFR^del19/T790M/C797S EGFR^L858R/C797S and EGFR^del19/C797S mutant genes are named BaF3-EGFR^L858R/T790M/C797S BaF3-EGFR^del19/T790M/C797S BaF3-EGFR^L858R/C797S and BaF3-EGFR^del19/C797S cells, respectively. Mediums:
(§1) a) The medium was preheated in a 37° C. water bath.
(§2) b) The cryopreservation tube was taken from the liquid nitrogen tank, quickly placed in a 37° C. water bath, and melted completely within 1 minute.
(§3) c) The cell suspension was transferred to a 15 mL centrifuge tube containing a 10 mL medium and centrifuged at 1000 rpm for 4 minutes.
(§4) d) The supernatant was discarded, the cells were resuspended in a 1 mL medium and transferred to a […] culture dish containing a 10 mL medium, 20% serum and 50 ng/mL EGF were administered to the first-generation medium, and culture was conducted in a 37° C. and 5% CO2 incubator.
(§5) b) The cells in the culture dish were blown evenly with a 5 mL pipette, and 500 μL of the cells were pipetted out to be inoculated into a new […] culture dish and cultured in a 37° C. and 5% CO2 incubator.
(§6) a) The compound to be tested (10 mM stock solution) was diluted with 100% DMSO to 1 mM, and diluted with a culture solution in a 24-well plate to prepare of a working solution of 2 μM concentration.
(§7) b) The 2 μM working solution was diluted with a triple dilution method to obtain working solutions with approximate concentrations of 2 μM, 600 nM, 200 nM, 60 nM, and 20 nM.
(§8) a) The cells at the logarithmic growth phase were centrifuged at 1000 rpm for 4 minutes, resuspended with a medium (containing 10% serum and 50 ng/mL EGF), and counted.
(§9) b) The cells were inoculated into a 96-well plate with a cell density of 4000 cells/well, and placed in a 37° C. and 5% CO2 incubator for culture for 12 hours.
(§10) a) The prepared compound was added to a 96-well plate, with 100 μL per well. The final concentrations were 1 μM, 300 nM, 100 nM, 30 nM, 10 nM, and 0 nM, and the final concentration of DMSO was 0.2%. A medium served as a blank control.
(§11) b) The cells were placed in 37° C. and 5% CO2 incubator for culture for 72 hours.
(§12) (5) Cell Viability Testing
a) The 96-well cell culture plate was taken out, and 20 μL of a CCK-8 reagent (Cell Counting Kit-8, Topscience, Catalog No. C0005) was added in the dark.
b) Mixing well was conducted on a horizontal shaking table at a room temperature at 100 rpm for 5 minutes.
c) The culture plate was placed in a 37° C. constant-temperature incubator for incubation.
d) Starting from the addition of the CCK-8, the absorbance at 450 nm was read using the TECAN microplate reader at 1 hour, 2 hours, and 3 hours, respectively.
(§13) The data was analyzed using GraphPad Prism 8.0 software to obtain a fitted curve of activity of the compounds. The IC50 of the compounds was fitted from nonlinear regression equation.

A431 cells = experiment: A431 cell proliferation inhibition (SRB); assay type: cell-based; conditions: Homo sapiens, A-431, wild-type EGFR, 72 hours
Method: A431 cell proliferation inhibition: The compounds of the present invention have good selectivity to wild-type EGFR
as §1, §2, §3, §4, §5, §6, §7, §8, §9, §10, §11, §12
a) The cell supernatant was discarded, rinsed once with 1×PBS, and fixed with 10% trichloroacetic acid for 1 hour. The trichloroacetic acid was discarded, excess trichloroacetic acid was washed off with tap water, and the 96-well plate was dried in a 60° C. oven.
b) 70 μL of an SRB stain was added to each well of the dry 96-well plate for staining at a room temperature for 30 minutes. Excess SRB stain was washed off with 1% glacial acetic acid, and the 96-well plate was dried in a 60° C. oven.
c) SRB was dissolved with 100 μL of 10 mM Tris-base solution. The absorbance was detected at 540 nm ultraviolet absorption using the microplate reader. The data was analyzed.
as §13

[2] = biological target: EGFR^L858R/T790M/C797S kinase (Homo sapiens (Human), UniProt P00533, C797S/L858R/T790M); experiment: EGFR^L858R/T790M/C797S kinase inhibitory activity experiment; assay type: biochemical; conditions: in vitro
Chain of EGFR^L858R/T790M/C797S kinase (P00533 25-1210 T790M/C797S/L858R): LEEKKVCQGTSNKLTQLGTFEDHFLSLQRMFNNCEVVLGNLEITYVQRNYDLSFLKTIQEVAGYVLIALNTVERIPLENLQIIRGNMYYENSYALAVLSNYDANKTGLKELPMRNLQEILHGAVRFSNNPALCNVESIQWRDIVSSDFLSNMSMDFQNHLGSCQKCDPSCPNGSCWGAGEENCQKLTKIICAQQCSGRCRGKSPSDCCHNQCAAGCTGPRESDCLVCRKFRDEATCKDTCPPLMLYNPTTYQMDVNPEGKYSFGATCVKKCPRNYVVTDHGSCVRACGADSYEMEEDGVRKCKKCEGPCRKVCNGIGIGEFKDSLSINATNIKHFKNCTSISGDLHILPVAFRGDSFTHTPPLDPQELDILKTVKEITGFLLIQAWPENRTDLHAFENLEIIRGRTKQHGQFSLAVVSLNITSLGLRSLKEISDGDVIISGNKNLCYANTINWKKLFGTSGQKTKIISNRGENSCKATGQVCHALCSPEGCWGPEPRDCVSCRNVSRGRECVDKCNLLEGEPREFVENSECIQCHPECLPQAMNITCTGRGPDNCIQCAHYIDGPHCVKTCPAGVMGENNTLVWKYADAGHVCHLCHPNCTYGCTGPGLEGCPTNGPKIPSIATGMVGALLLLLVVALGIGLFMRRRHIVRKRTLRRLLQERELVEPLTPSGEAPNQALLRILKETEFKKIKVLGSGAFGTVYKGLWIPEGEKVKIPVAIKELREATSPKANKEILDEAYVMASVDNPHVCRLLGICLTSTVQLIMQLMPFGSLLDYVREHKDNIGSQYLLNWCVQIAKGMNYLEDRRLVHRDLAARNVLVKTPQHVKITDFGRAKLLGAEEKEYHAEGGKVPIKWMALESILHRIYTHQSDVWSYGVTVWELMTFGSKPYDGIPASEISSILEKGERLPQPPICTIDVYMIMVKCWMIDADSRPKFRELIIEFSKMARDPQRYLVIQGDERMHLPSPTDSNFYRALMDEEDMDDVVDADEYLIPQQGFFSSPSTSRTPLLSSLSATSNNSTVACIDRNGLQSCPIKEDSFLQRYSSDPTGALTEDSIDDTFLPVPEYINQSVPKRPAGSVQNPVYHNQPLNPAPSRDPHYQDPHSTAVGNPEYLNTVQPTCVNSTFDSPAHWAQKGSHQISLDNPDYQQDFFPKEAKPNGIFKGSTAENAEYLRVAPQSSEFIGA
Method: EGFRL^858R/T790M/C797S kinase inhibitory activity experiment: The compounds of the present invention have excellent in-vitro inhibitory activity against EGFR^L858R/T790M/C797S kinase
• Centrifuge (manufacturer: Eppendorf, model: 5430) • Microplate reader (manufacturer: Perkin Elmer, model: Caliper EZ ReaderII) • Echo 550 (manufacturer: Labcyte, model: Echo 550) • Experimental Method • Compound preparation: • A 10 mM storage solution was prepared.
(1) 1×Kinase buffer was prepared.
(2) Preparation of concentration gradient of compound: The tested compound has a test concentration starting from 1 μM, diluted 10 times, with 10 concentrations, and subjected to single-well or multi-well detection. The compound was diluted to a 100% DMSO solution with a final concentration of 100 times in a 384 source plate. […] of the compound at a final concentration of 100 times was transferred to the target plate 384-well-plate using the pipette Echo 550.
(3) A kinase solution with a final concentration of 2.5 times was prepared using 1× Kinase buffer.
(4) 10 μL of the kinase solution with the final concentration of 2.5 times was added to a compound well and a positive control well, respectively; 10 μL of 1×Kinase buffer was added to a negative control well.
(5) Centrifugation was conducted at 1000 rpm for 30 seconds, and the reaction plate was shaken and mixed well, and incubated at a room temperature for 10 minutes.
(6) A mixed solution of ATP with a final concentration of 5/3 times and Kinase substrate 22 was prepared using 1×Kinase buffer.
(7) A mixed solution of 15 μL of ATP with a final concentration of 5/3 times and a substrate was added for initial reaction.
(8) The 384-well-plate was centrifuged at 1000 rpm for 30 seconds, shaken and mixed well, and incubated at a room temperature for 60 minutes.
(9) 30 μL of a termination detection solution was added to stop the kinase reaction. Centrifugation was conducted at 1000 rpm for 30 seconds. Shaking and mixing well were conducted.
(10) The conversion rate was read using Caliper EZ Reader.
where Conversion %_sample is the conversion rate reading of the sample; Conversion %_min: the average value of negative control wells, representing the conversion rate reading of wells without enzyme activity; Conversion %_max: the average value of positive control wells, representing the conversion rate reading of wells without compound inhibition; % Inhibition represents the inhibition rate.
Fitting of Dose-Response Curve
Using the log value of concentration as the X-axis and the percentage inhibition rate as the Y-axis, the dose-response curve was fitted using the log(inhibitor) vs. response —Variable slope of the analysis software GraphPad Prism 5 to obtain the IC50 value of each compound on enzyme activity.

SMILES	IC50 [1] [nM]	IC50 (A431 cells) [nM]	IC50 [2] [nM]
CCc1cc(Nc2ncc(Cl)c(Nc3cccc(Cl)c3P(C)(C)=O)n2)c(OC)cc1N1CCC2(CC1)CC(N(C)C)C2 [Compound 19, (2-chloro-6-((5-chloro-2-((4-(2-(dimethylamino)-7-azaspiro[3.5]nonan-7-yl)-5-ethyl-2-methoxyphenyl)amino)pyrimidin-4-yl)amino)phenyl)dimethylphosphine oxide]	47.8	> 500	0.86
CCc1cc(Nc2ncc(Cl)c(Nc3cc(C)c(C)cc3P(C)(C)=O)n2)c(OC)cc1N1CCC2(CC1)CC(N(C)C)C2 [Compound 17, (2-((5-Chloro-2-((4-(2-(dimethylamino)-7-azaspiro[3.5]non-7-yl)-5-ethyl-2-methoxyphenyl)amino)pyrimidin-4-yl)amino)-4,5-dimethylphenyl)dimethylphosphine oxide]	45.4	> 500	0.77
COc1cc(N2CC3(CCN(C)CC3)C2)c(C)cc1Nc1ncc(Cl)c(Nc2cc(C)c(C)cc2P(C)(C)=O)n1 [Compound 5, (2-((5-Chloro-2-((2-methoxy-5-methyl-4-(7-methyl-2,7-diazaspiro[3.5]nonan-2-yl)phenyl)amino)pyrimidin-4-yl)amino)-4,5-dimethylphenyl)dimethylphosphine oxide]	42.3	> 500	11
CCc1cc(Nc2ncc(Cl)c(Nc3ccc(C)c(C)c3P(C)(C)=O)n2)c(OC)cc1N1CCC2(CCN(C)CC2)CC1 [Compound 55, (6-((5-Chloro-2-((5-ethyl-2-methoxy-4-(9-methyl-3,9-diazaspiro[5.5]undecan-3-yl)phenyl)amino)pyrimidin-4-yl)amino)-2,3-dimethylphenyl)dimethylphosphine oxide]	48.6	700	0.297
CCc1cc(Nc2ncc(Cl)c(Nc3ccccc3P(C)(C)=O)n2)c(OC)cc1N1CC2(CCN(C)CC2)C1 [Comparative Compound B, (2-((5-Chloro-2-((5-ethyl-2-methoxy-4-(7-methyl-2,7-diazaspiro[3.5]nonan-2-yl)phenyl)amino)pyrimidin-4-yl)amino)phenyl)dimethylphosphine oxide, reference compound]	251	280	2.3
CCc1cc(Nc2ncc(Cl)c(Nc3cc(Cl)c(Cl)cc3P(C)(C)=O)n2)c(OC)cc1N1CCC2(CC1)CC(N(C)C)C2 [Compound 7, (4,5-Dichloro-2-((5-chloro-2-((4-(2-(dimethylamino)-7-azaspiro[3. 5]nonan-7-yl)-5-ethyl-2-methoxyphenyl)amino)pyrimidin-4-yl)amino)phenyl)dimethylphosphine oxide]	49.9	> 500	0.98
COc1cc(N2CCC3(CC2)CC(N(C)C)C3)c(Cl)cc1Nc1ncc(Cl)c(Nc2ccc(C)c(C)c2P(C)(C)=O)n1 [Compound 21, (6-((5-chloro-2-((5-chloro-4-(2-(dimethylamino)-7-azaspiro[3.5]nonan-7-yl)-2-methoxyphenyl)amino)pyrimidin-4-yl)amino)-2,3-dimethylphenyl)dimethylphosphine oxide]	33.3	> 500	0.65
CCc1cc(Nc2ncc(Cl)c(Nc3cc(Cl)c(Cl)cc3P(C)(C)=O)n2)c(OC)cc1N1CC2(CCN(C)CC2)C1 [Compound 36]	–	–	0.96
COc1cc(N2CCC3(CC2)CC(N(C)C)C3)c(C)cc1Nc1ncc(Cl)c(Nc2ccc(C)c(C)c2P(C)(C)=O)n1 [Compound 23, (6-((5-chloro-2-((4-(2-(dimethylamino)-7-azaspiro[3.5]nonan-7-yl)-2-methoxy-5-methylphenyl)amino)pyrimidin-4-yl)amino)-2,3-dimethylphenyl)dimethylphosphine oxide]	39	> 500	0.78
CCc1cc(Nc2ncc(Cl)c(Nc3cccc(Cl)c3P(C)(C)=O)n2)c(OC)cc1N1CC2(CCN(C)CC2)C1 [Compound 46]	–	–	0.63
CCc1cc(Nc2ncc(Cl)c(Nc3ccc(C)c(C)c3P(C)(C)=O)n2)c(OC)cc1N1CC2(CCN(CC3CC3)CC2)C1 [Compound 26]	–	–	0.74
CCc1cc(Nc2ncc(Cl)c(Nc3cc(Cl)c(Cl)cc3P(C)(C)=O)n2)c(OC)cc1N1CC2(CCN(CC(F)F)CC2)C1 [Compound 38]	–	–	0.59
CCc1cc(Nc2ncc(Cl)c(Nc3cccc(Cl)c3P(C)(C)=O)n2)c(OC)cc1N1CC2(CCN(CC)CC2)C1 [Compound 47]	–	–	0.78
CCc1cc(Nc2ncc(Cl)c(Nc3ccc(C)c(C)c3P(C)(C)=O)n2)c(OC)cc1N1CC2(CCN(CC(F)F)CC2)C1 [Compound 28]	–	–	0.99
CCc1cc(Nc2ncc(Cl)c(Nc3ccc(C)c(C)c3P(C)(C)=O)n2)c(OC)cc1N1CCC(N2CC3CC(C2)N3C)CC1 [Compound 53, (6-((5-Chloro-2-((5-ethyl-2-methoxy-4-(4-(6-methyl-3,6-diazadicyclo[3.1.1]heptane-3-yl)piperidin-1-yl)phenyl)amino)pyrimidin-4-yl)amino)-2,3-dimethylphenyl)dimethylphosphine oxide]	–	–	0.269
COc1cc(N2CCC3(CC2)CC(N(C)C)C3)c(F)cc1Nc1ncc(Cl)c(Nc2ccc(C)c(C)c2P(C)(C)=O)n1 [Compound 22]	–	–	10
